# In patent publication US5708018A, “2-aminoindans as selective dopamine D3 ligands” (Pharmacia & Upjohn Company, priority 1996, dated 1998):
# Where two headings read alike, the source gives them in different places.
# Tests used:
# D2 = target: T1, D2 (Rattus norvegicus, UniProt P61169); assay: Competition binding, cloned mammalian D2 receptors expressed in CHO-K1 cells, [3H]-5-(dipropylamino)-5,6-dihydro-4H-imidazo(4,5,1-ij)quinolin-2(1H)-one (R-enantiomer); settings: radioligand 2 nM, IC50 from one-site fit, Ki by Chen-Prushoff equation
# T1 construct: expressed in transfected cells; host or cells: CHO-K1
# Method: (§1) Competition binding experiments employed eleven dilutions of test compounds competing with [^3 H]-5-(dipropylamino)-5,6-dihydro-4H-imidazo(4,5,1-ij)quinolin-2(1H)-one (R-enantiomer) (62 Ci/mmol, 2 nM) and [^3 H]-spiperone (107 Ci/mmol, 0.5 nM) for D2 and D3 binding sites, respectively. (Lahti, R. A., Eur. J. Pharmacol., 202, 289 (1991)) In each experiment, cloned mammalian receptors expressed in CHO-K1 cells were used. (Chio, C. L., Nature, 343, 266 (1990); and Huff, R. M., Mol. Pharmacol. (1993), in press). IC50 values were estimated by fitting the data to a one-site model by non-linear least squares minimization. Ki values were calculated with the Chen-Prushoff equation.
# D3 = target: T2, D3 (Rattus norvegicus, UniProt P19020); assay: Competition binding, cloned mammalian D3 receptors expressed in CHO-K1 cells, [3H]-spiperone
# T2 construct: expressed in transfected cells; host or cells: CHO-K1
# Method: as §1
# [1] = cloned mammalian receptors in CHO-K1 cells, [3H]-spiperone 0.5 nM, IC50 from one-site fit, Ki by Chen-Prushoff equation, read-out: D3 (ki)
# T1 sequence (P61169 whole entry): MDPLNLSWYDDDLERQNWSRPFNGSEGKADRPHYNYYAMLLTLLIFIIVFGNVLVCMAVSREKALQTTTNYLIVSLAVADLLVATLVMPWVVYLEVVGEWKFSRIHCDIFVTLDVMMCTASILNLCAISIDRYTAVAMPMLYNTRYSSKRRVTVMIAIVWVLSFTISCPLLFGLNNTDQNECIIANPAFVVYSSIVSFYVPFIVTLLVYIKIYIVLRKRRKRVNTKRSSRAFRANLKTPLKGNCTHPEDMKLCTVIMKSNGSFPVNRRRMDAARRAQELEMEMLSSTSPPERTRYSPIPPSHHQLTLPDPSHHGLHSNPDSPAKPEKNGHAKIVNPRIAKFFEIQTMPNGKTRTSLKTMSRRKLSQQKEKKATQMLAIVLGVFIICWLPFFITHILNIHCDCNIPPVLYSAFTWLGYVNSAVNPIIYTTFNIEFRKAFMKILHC
# T2 sequence (P19020 whole entry): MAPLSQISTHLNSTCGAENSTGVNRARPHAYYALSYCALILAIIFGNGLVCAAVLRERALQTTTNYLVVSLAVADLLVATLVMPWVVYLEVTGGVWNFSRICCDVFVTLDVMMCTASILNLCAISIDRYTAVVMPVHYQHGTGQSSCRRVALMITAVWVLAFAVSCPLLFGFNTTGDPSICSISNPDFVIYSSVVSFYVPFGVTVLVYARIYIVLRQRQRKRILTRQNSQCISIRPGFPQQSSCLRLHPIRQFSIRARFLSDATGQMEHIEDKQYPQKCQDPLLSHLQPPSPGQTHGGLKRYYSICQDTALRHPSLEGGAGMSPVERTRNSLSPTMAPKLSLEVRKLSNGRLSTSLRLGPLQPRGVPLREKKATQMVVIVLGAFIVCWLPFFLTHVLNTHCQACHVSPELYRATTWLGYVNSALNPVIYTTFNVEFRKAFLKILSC
Compound,Ki (D2) [nM],Ki (D3) [nM],Ki (D3; [1]) [nM]
CCCN(CCC)C1Cc2ccc(OS(=O)(=O)C(F)(F)F)cc2C1 (centres unmarked) [Example 2],350,31,
"CCCN(CCC)C1Cc2cc(OS(=O)(=O)c3ccc(C)cc3)c(OS(=O)(=O)c3ccc(C)cc3)cc2C1 [Example 32, 5,6 di-toluenesulfonyloxy-2-(di-n-propylamino)indan]",291,,45
"CCCN(CCC)C1Cc2ccc(OS(=O)(=O)c3ccc(C)cc3)cc2C1 (centres unmarked) [Example 17, Toluene-4-sulfonic acid 2-dipropylamino-indan-5-yl ester]",108,,3.7
"CCCN(CCC)C1Cc2cc(O)c(C(=O)OC)cc2C1 (centres unmarked) [Example 10, 5-(carbomethoxy)-6-hydroxy-2-(di-N-propylamino)indan]",121,6.5,
